Results on 4 molecules are retold here after ChEMBL document CHEMBL2074108, “Inhibition of P-glycoprotein activity and chemosensitization of multidrug-resistant ovarian carcinoma 2780AD cells by hexanoylglucosylceramide” (Biochem Biophys Res Commun, 1999).

The structures appear in SMILES notation.

What all share (format): functional, cell-based
Data set [1] concerns the target T1, ATP-dependent translocase ABCB1 (Homo sapiens, UniProt P08183). In words: TP_TRANSPORTER: inhibition of Rhodamine 123 efflux (R123: 10 uM, C6-GalCer: 20 uM) in 2780AD cells.
Data set [2] addresses T1, ATP-dependent translocase ABCB1. Briefly: TP_TRANSPORTER: inhibition of Rhodamine 123 efflux (R123: 10 uM, C6-GlcCer: 20 uM) in 2780AD cells.
Data set [3] has the same target. In words: TP_TRANSPORTER: inhibition of Rhodamine 123 efflux (R123: 10 uM, C6-LacCer: 20 uM) in 2780AD cells.
Data set [4] shares this target. In words: TP_TRANSPORTER: inhibition of Rhodamine 123 efflux (R123: 10 uM, C6-SM: 10 uM) in 2780AD cells.

T1 sequence (P08183 whole entry): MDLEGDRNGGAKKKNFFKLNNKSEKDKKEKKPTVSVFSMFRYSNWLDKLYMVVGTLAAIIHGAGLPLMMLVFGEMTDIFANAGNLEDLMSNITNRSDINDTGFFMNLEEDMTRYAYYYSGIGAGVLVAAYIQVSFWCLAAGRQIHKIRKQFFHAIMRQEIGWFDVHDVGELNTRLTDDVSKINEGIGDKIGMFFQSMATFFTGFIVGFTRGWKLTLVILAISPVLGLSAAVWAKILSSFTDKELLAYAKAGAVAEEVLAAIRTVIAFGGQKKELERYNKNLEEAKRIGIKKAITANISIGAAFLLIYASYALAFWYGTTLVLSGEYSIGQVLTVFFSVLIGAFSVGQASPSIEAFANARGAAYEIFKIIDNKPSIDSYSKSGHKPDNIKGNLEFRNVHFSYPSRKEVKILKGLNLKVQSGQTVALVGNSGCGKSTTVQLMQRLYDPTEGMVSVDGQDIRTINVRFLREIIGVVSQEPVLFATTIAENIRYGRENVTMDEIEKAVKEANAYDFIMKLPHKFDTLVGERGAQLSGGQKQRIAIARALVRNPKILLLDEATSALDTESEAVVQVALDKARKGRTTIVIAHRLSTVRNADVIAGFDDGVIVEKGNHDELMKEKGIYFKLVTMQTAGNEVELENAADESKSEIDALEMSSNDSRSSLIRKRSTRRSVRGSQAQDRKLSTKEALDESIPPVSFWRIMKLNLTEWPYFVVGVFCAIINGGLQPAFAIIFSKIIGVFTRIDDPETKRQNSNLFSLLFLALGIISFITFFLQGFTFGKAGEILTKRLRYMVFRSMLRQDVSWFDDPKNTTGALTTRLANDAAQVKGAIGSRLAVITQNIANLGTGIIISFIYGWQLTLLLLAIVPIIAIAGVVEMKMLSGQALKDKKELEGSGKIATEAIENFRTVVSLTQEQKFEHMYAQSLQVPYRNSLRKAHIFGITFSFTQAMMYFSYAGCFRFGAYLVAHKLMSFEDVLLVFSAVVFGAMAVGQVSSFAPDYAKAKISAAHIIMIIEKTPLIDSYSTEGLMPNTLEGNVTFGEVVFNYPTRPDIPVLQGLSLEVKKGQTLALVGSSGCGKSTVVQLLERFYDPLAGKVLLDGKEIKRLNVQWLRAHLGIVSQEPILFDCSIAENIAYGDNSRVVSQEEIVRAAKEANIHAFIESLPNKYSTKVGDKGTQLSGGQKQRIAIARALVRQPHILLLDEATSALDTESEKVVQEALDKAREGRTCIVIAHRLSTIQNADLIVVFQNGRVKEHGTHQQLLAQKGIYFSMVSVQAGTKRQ

For the molecule `CCCCCCCCCCCCC/C=C/[C@@H](O)[C@H](CO[C@@H]1O[C@H](CC)[C@H](O)[C@H](O)[C@H]1O)NC(=O)CCCCCC`, the Activity entry in data set [1] is “inhibitor [+]”.
`CCCCCCCCCCCCC/C=C/[C@@H](O)[C@H](CO[C@@H]1O[C@H](CC)[C@@H](O)[C@H](O)[C@H]1O)NC(=O)CCCCCC`: the Activity entry in data set [2] was “inhibitor [+]”.
Consider `CCCCCCCCCCCCC/C=C/[C@@H](O)[C@H](CO[C@@H]1O[C@H](CC)[C@@H](O[C@@H]2O[C@H](CO)[C@@H](O)[C@H](O)[C@H]2O)[C@H](O)[C@H]1O)NC(=O)CCCCCC`, for which the Activity entry in data set [3] was “inhibitor [+]”.
`CCCCCCCCCCCCCCCC(O)C(CO)NC(=O)CCCCCC` (centres undefined): the Activity result in data set [4] was “inhibitor [+]”.
